Measurements published in PubChem BioAssay (NCI).
Several values for one entry are separate records, joined by “and”; a condition that tells them apart may be missing. Identical values can stand only once.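 Dose response: 5 concentrations. Exposure: 48 h. Format: 96-well plates. Endpoint: linear interpolation; highest concentration if not reached. GI50 is the concentration that inhibits growth by half. TGI marks complete inhibition of growth.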

Key:
Assay in all cases: DTP human tumour cell line panel, 48 h
UACC-257 melanoma = test system: UACC-257 melanoma
IGROV1 ovarian = test system: IGROV1 ovarian
SF-539 CNS = test system: SF-539 CNS
HOP-62 NSCLC = test system: HOP-62 NSCLC
RPMI-8226 leukemia = test system: RPMI-8226 leukemia
NCI-H460 lung = test system: NCI-H460 lung
HL-60(TB) leukemia = test system: HL-60(TB) leukemia
UO-31 renal = test system: UO-31 renal
SNB-19 CNS = test system: SNB-19 CNS
OVCAR-8 ovarian = test system: OVCAR-8 ovarian

Row | Compound | GI50 (UACC-257 melanoma) | TGI (UACC-257 melanoma) | GI50 (IGROV1 ovarian) | TGI (IGROV1 ovarian) | GI50 (SF-539 CNS) | TGI (SF-539 CNS) | GI50 (HOP-62 NSCLC) | TGI (HOP-62 NSCLC) | GI50 (RPMI-8226 leukemia) | TGI (RPMI-8226 leukemia) | GI50 (NCI-H460 lung) | TGI (NCI-H460 lung) | GI50 (HL-60(TB) leukemia) | TGI (HL-60(TB) leukemia) | GI50 (UO-31 renal) | TGI (UO-31 renal) | GI50 (SNB-19 CNS) | TGI (SNB-19 CNS) | TGI (OVCAR-8 ovarian) | GI50 (OVCAR-8 ovarian)
1 | COc1cc(F)c(/C=C/c2cc(/C=C/c3cc(OC)c(OC)cc3F)n(-c3cc(F)cc(F)c3)n2)cc1OC | 1.48 µM | 3.28 µM | 4.73 µM | 21.1 µM | 2.7 µM | 9.17 µM | 4.01 µM | 17.1 µM | 3.75 µM | 41.4 µM | 3.43 µM | 12.2 µM | > 100 µM | > 100 µM | 14.1 µM | 34.4 µM | 2.37 µM | 5.52 µM | – | –
2 | CC(=O)/C=C1\CC(=O)Nc2ccccc2N1 | – | > 100 µM | – | > 100 µM | – | > 100 µM | – | – | – | > 100 µM | – | > 100 µM | – | > 100 µM | – | > 100 µM | – | > 100 µM | > 100 µM | –
3 | CCc1ccc2nccc(NCCCN(C)C)c2c1[N+](=O)[O-] | – | 81.3 µM | – | > 100 µM | – | – | – | > 100 µM | – | > 100 µM | – | > 100 µM | – | > 100 µM | – | > 100 µM | – | > 100 µM | > 100 µM | –
4 | c1ccc(B2OCC(C3OB(c4ccccc4)OC4COB(c5ccccc5)OC43)O2)cc1 (stereo not drawn) | – | > 100 µM | – | > 100 µM | – | > 100 µM | – | > 100 µM | – | > 100 µM | – | > 100 µM | – | – | – | > 100 µM | – | > 100 µM | > 100 µM | –
5 | N#Cc1ccc(Oc2cccc(Oc3ccccc3)c2)cc1C#N | – | – | > 100 µM | > 100 µM | – | > 100 µM | > 100 µM | > 100 µM | – | – | – | > 100 µM | – | > 100 µM | – | 61.6 µM | – | > 100 µM | > 100 µM | > 100 µM
6 | CN(C)CCCCn1ccc2c1C(=O)c1c(c(O)c3ccccc3c1O)C2=O | 15.5 µM | 29.5 µM | 18.6 µM | > 100 µM | – | – | 15.8 µM | 31 µM | 1.74 µM | 7.52 µM | 19.2 µM | 36.9 µM | 10.4 µM | 23.4 µM | 33 µM | > 100 µM | 14.6 µM | 30.5 µM | 25.6 µM | 11.5 µM
7 | COc1cccc(N=N/C(=N\NC(=O)c2cc(Br)ccc2O)c2ccc(N(CCC#N)CCC#N)cc2OC)c1 | 87.8 µg/mL | > 150 µg/mL | 53.7 µg/mL | > 150 µg/mL | 42.7 µg/mL | > 150 µg/mL | – | – | 41.4 µg/mL | > 150 µg/mL | 24.9 µg/mL | 82.7 µg/mL | 15 µg/mL | 15 µg/mL | 68 µg/mL | > 150 µg/mL | 68.9 µg/mL | > 150 µg/mL | > 150 µg/mL | 41.6 µg/mL
8 | COc1cc(/C=C\c2ccc(Br)cc2)cc(OC)c1OC | – | 11.3 µM | – | > 100 µM | – | 0.00366 µM | – | 23.9 µM | – | 27.6 µM | – | – | – | 0.0032 µM | – | – | – | > 100 µM | – | –
9 | NCc1c(C(N)=O)ncn1Cc1ccccc1 | – | > 100 µM | – | > 100 µM | – | > 100 µM | – | > 100 µM | – | > 100 µM | – | > 100 µM | – | > 100 µM | – | – | – | > 100 µM | > 100 µM | –
10 | CCOC(=O)C(C(=O)OCC)C(=O)c1ccccc1C(=O)c1ccccc1 | – | > 100 µM | – | > 100 µM | – | > 100 µM | – | > 100 µM | – | – | – | > 100 µM | – | > 100 µM | – | > 100 µM | – | > 100 µM | – | –
11 | Fc1ccc2c(c1)C1=C(CO2)C(c2ccc(Cl)cc2)NC(=S)N1 (stereo not drawn) | 29.4 µM | 95.3 µM | 24.3 µM | 61 µM | 23 µM | 44.1 µM | – | – | 11.1 µM | 34.5 µM | 21.9 µM | 61.8 µM | 31.6 µM | > 100 µM | 27.8 µM | 84 µM | 44.1 µM | > 100 µM | > 100 µM | 42.6 µM
12 | NS(=O)(=O)c1ccc(-n2ncc3c(Nc4ccccc4)ncnc32)cc1 | 39.4 µM | > 100 µM | – | – | 36.2 µM | > 100 µM | 16.7 µM | 48.5 µM | 15.3 µM | 76.6 µM | 14.9 µM | > 100 µM | 6.59 µM | 92.7 µM | 23.9 µM | > 100 µM | > 100 µM | > 100 µM | 65 µM | 18.3 µM
13 | O=C(Nc1nc2ccc([N+](=O)[O-])cc2s1)C(=O)C(C(=O)c1ccncc1)C1OC(=O)c2ccccc21 (stereo not drawn) | – | > 100 µM | – | > 100 µM | – | – | – | > 100 µM | – | > 100 µM | – | – | – | > 100 µM | – | – | – | > 100 µM | > 100 µM | –
14 | CCCCCCCCCCCCCCCCCCOc1ccccc1CC(=O)NCC[N+](C)(C)C | 23.6 µM | 51.6 µM | – | – | 5.48 µM | 37 µM | 2.32 µM | 6.9 µM | – | – | 3.47 µM | 52.4 µM | – | – | 17.9 µM | 80.4 µM | – | – | 41.9 µM | 5.79 µM
15 | CCOC(=O)N1C(c2ccccc2)C=CC(c2ccccc2)N1C(=O)OCC (stereo not drawn) | – | > 100 µM | – | > 100 µM | – | > 100 µM | – | > 100 µM | – | > 100 µM | – | > 100 µM | – | – | – | – | – | > 100 µM | > 100 µM | –
16 | CC1[C@@H]2CC=C3[C@H]4CCC5Cc6nc7c(nc6C[C@@]5(C)C4(O)CC(=O)[C@]32CO[C@]12OC(C)(C)CC2O)CC1CC[C@@H]2C3=C[C@H]4O[C@@]5(O[C@@](C)(CO)C[C@@H]5O)C(C)[C@@]4(O)[C@]3(C)[C@@H](O)CC2[C@]1(C)C7 (stereo partly drawn) | – | – | 0.00258 µM and 0.0049 µM | > 3.6 µM | 0.00036 µM | – | 0.000104 µM and 0.00036 µM | 0.000831 µM and 0.00257 µM | < 0.00036 µM | 0.000322 µM and < 0.00036 µM | 0.000125 µM and 0.00036 µM | 0.0155 µM and 0.14 µM | 0.00036 µM | – | – | – | 0.00241 µM and 0.0164 µM | 0.393 µM and > 3.6 µM | – | 0.198 µM
17 | Cc1cc(C)c(S(=O)(=O)N(CCc2cccc(Br)c2)Cc2ccc(-c3cccc(S(C)(=O)=O)c3)cc2)c(C)c1 | – | – | > 100 µM | > 100 µM | > 100 µM | > 100 µM | > 100 µM | > 100 µM | > 100 µM | > 100 µM | > 100 µM | > 100 µM | > 100 µM | > 100 µM | > 100 µM | > 100 µM | > 100 µM | > 100 µM | > 100 µM | > 100 µM
18 | CC(=O)OC1CCC2C(=CCC3C2(C)C(=O)CC2(C)C(C4(C)OC(C(C)C)=CC4=O)C(O)CC32C)C1(C)C (stereo not drawn) | – | – | – | > 100 µM | – | 33.2 µM | – | > 100 µM | – | 56.7 µM | – | 66.4 µM | – | – | – | > 100 µM | – | > 100 µM | > 100 µM | –
